# In patent US10485814B2, “Nicotinamide riboside analogs and pharmaceutical compositions and uses thereof” (GlaxoSmithKline Intellectual Property (No. 2) Limited, priority 2014, dated 2019):
# Structures can show the parent of a compound that is named as a salt.
# Test system: HaCaT cells (a human keratinocyte cell line)
# Assay: Intracellular NAD measurement in HaCaT cells (ADPR cyclase enzymatic assay, absorbance 405 nm)
# Assay type: cell-based
# Settings: HaCaT in DMEM medium with Vit B3, highest tested doses, 3 hrs
# Procedure: HaCaT cells (AddexBio Technologies, San Diego, Calif., Passage 16-19) were grown in Medium DMEM/GlutMax (Life technologies, Grand Island, N.Y.) supplemented with 10% FBS (Life technologies) and Non-essential amino acids (NEAA, Life technologies) and then seeded in 12-well plates (Corning, Tewksbury, Mass.) with a density at 2×10^5 cells per well and 2 ml of culture medium in each well for overnight.
# Stock solution of dihydronicotinamide riboside (NRH, GSK3008320A, GSK, RTP, NC) was prepared in ethanol at 100 mM (25.6 mg/ml) and stored at −20° C. Cells were treated with different concentrations of NRH for 3 hrs, washed twice with PBS containing 5 mM EDTA, and then subject to Nicotinamide adenine dinucleotide (NAD) measurement. In brief, acetonitrile (ACN) lysis buffer (Ammonium Acetate (50 mM) and 90% acetonitrile) was added to each well (200 μl/well) to lyse the cells at RT for 5-10 mins by gently rotating on a culture plate shaker at a low speed. Enzyme master mix (300 μM of 5-Amino-(3,4′-bipyridin)-6(1H)-one (Inamrinone) (Sigma-Aldrich), a substrate for ADP ribosyl cyclase (ADPR cyclase)) and 30 nM ADPR Cyclase (Sigma, St. Louis, Mo.), 7.5 μM of N-(2-fluoro-4-(methylsulfonyl)phenyl)-2-methyl-6-(thiazol-5-yl)isonicotinamide (a CD38 inhibitor) in 75 mM HEPES pH7 buffer (Life Technologies)) was added to the lysed cells (400 μl of enzyme master mix/well). Enzymatic reaction was incubated at RT for ˜30 min. At the end of incubation, the supernatant (200 μl) of the reaction solution from each well was transferred to each well of a 96-well plate and absorbance was read twice in the 96-well plate at 405 nm using a plate reader (Spectra Maxplus, Molecular Devices, Sunnyvale, Calif.). A mixture of enzyme master mix and ACN extraction solution at 2:1 ratio was used as a blank reference. NAD (Sigma) was used as a positive control.
# HaCaT cells were grown as described in example 23 in the regular cell culture DMEM medium as described earlier or in the Epilife medium without nacinamide (Life Technologies). Cells were treated with different concentrations of NRH or niacinamide (NIA, DSM nutritional products) for 3 hrs, washed twice with PBS containing 5 mM EDTA, and then subject to Nicotinamide adenine dinucleotide (NAD) measurement as described in example 23. A mixture of enzyme master mix and ACN extraction solution at 2:1 ratio for a blank reference. NAD (Sigma) was used as a positive control. […] Both the CD38 inhibitor and Niacinamide increased NAD in the HaCaT cells cultured in the Vit B3 depleted culture medium, and the induction of NAD by niacinamide was dose-dependent (solid bars). However, the induction of NAD by niacinamide (highest at ˜1.5 fold) was low compared to those by NRH. Therefore, NRH is a stronger NAD inducer compared to a CD38 inhibitor or Niacinamide.
# HaCaT cells were grown in regular culture media as described in example 1 and seeded in 12-well plates with density at 2×10^5 cells per well and 1 ml of culture medium in each well. NRH stock solution was prepared in ethanol at 100 mM (25.6 mg/ml) and stored at −20° C. Stock solutions of NRH esters were made at 50 mM in DMSO (see FIG. 9B for compound info). Cells were treated with NRH esters and NRH at 150 μM for 6 and 16 hrs, washed twice with PB S containing 5 mM EDTA, and then subject to Nicotinamide adenine dinucleotide (NAD) measurement as described in example 23.
# HaCaT cells were grown in regular culture media as described above and seeded in 12-well plates with density at 2×10^5 cells per well and 1 ml of culture medium in each well. NRH stock solution was prepared in ethanol at 100 mM (25.6 mg/ml) and stored at −20° C. NRH (200 μM) was used as a positive control. Because of the possible solubility issue related to NRH monoC16, fatty acid-free bovine serum albumin (defatted BSA, Sigma) was used as a carrier for the compound. NRH monoC16 stock solution (100×) was complexed with defatted BSA ([…]) prior to the treatment, resulting in a NRH monoC16 stock solution (10 ×). […]
row,SMILES,NAD elevation
1,"Cc1cc(C(=O)Nc2ccc(S(C)(=O)=O)cc2F)cc(-c2cncs2)n1 [CD38 inhibitor, N-(2-fluoro-4-(methylsulfonyl)phenyl)-2-methyl-6-(thiazol-5-yl)isonicotinamide, reference compound]",did not lead to NAD elevation

# Same assay, conditions: HaCaT in Vit B3 depleted culture medium, 3 hrs
row,SMILES,NAD level
1,"Cc1cc(C(=O)Nc2ccc(S(C)(=O)=O)cc2F)cc(-c2cncs2)n1 [CD38 inhibitor, N-(2-fluoro-4-(methylsulfonyl)phenyl)-2-methyl-6-(thiazol-5-yl)isonicotinamide, reference compound]",increased NAD

# Same assay, conditions: HaCaT, 150 μM
row,SMILES,appearance of treated cells (potential cytotoxicity)
1,"CCCCCCCC/C=C\CCCCCCCC(=O)OC[C@H]1O[C@@H]([n+]2cccc(C(N)=O)c2)[C@H](O)[C@@H]1O [NR+ monooleate, 3-carbamoyl-1-((2R,3R,4S,5R)-3,4-dihydroxy-5-((oleoyloxy)methyl)tetrahydrofuran-2-yl)pyridin-1-ium 2,2,2-trifluoroacetate]",appeared unhealthy

# Test system: not listed separately
# Assay: Plasma hydrolysis of nicotinamide riboside analogs to NR (incubation with rat plasma, LC/MS/MS)
# Assay type: in vitro ADME
# Settings: 10 mM, incubated 30 min at 37° C.
# Procedure: Compounds were diluted with rat plasma to a concentration of 10 millimolar (mM). Samples were incubated for 30 min at 37° C., taking 50 microL aliquots for analysis at 0 and 30 min. The aliquots were loaded onto a deep 96 well plate, then 350 microL of 0.1% (v:v) formic acid in acetonitrile was added to each well. The plate was covered and sealed to prevent evaporation, then it was placed on an orbital plate shaker set to 800-900 rps for 5-10 minutes. Next, the plate was centrifuged at around 3000 rpm for 5 min to provide a clear supernatant. For LC/MS/MS analysis, 200 microL of supernatant from each well was transferred onto a clean plate, which was subsequently capped and placed into an autosampler.
# LCMS Conditions. For each well, a 10 microL sample was injected via autosampler onto a Chromolithe Performance, RP-18e (100×4.6 mm) column, and eluted with a binary gradient. Solvent A=0.1% formic acid, 0.1% N,N-dibutyl-N-methylamine (DBME) in 2 mM aqueous ammonium acetate (1:1:1000 v:v:v). Solvent B=0.1% formic acid in acetonitrile (1:1000 v:v). The solvent gradient was as follows: 0-0.22 min, 95:5 A:B; […], 95:5 A:B to 30:70 A:B (linear gradient); 5.05-6.05 min, 30:70 A:B; 6.05-6.60 min, 30:70 A:B to 95:5 A:B (linear gradient); 6.60-7.15 min, 95:5 A:B; stop elution at 7.15 min. Nicotinamide riboside eluted at approximately 1.7 min. A triple-quadrupole mass spectrometer was employed for peak identification. The identity of the analyte was confirmed by MS observation of a Q1 peak at m/z=255 (M)^+, and a Q3 peak at m/z=123.1 (M-C5H8O4)^+.
# The results are shown in FIG. 3, with the release of free nicotinamide riboside measured using by HPLC-MS at 0, 30, and 60 minute time points (columns 5, 6, and 7 of table shown in FIG. 3). For each of NR esters in Table 3, except nicotinamide riboside tribenzoate, nicotinamide riboside was detected at the 30 minute time point.
row,SMILES,conversion to free nicotinamide riboside
1,"CCCCC(=O)OC[C@H]1O[C@@H]([n+]2cccc(C(N)=O)c2)[C@H](OC(=O)CCCC)[C@@H]1OC(=O)CCCC [1-((2R,3R,4R,5R)-3,4-bis(pentanoyloxy)-5-((pentanoyloxy)methyl)tetrahydrofuran-2-yl)-3-carbamoylpyridin-1-ium chloride]",converted to free nicotinamide riboside to a significant degree
2,"CCCCCCCCCCCC(=O)OC[C@H]1O[C@@H]([n+]2cccc(C(N)=O)c2)[C@H](O)[C@@H]1O.O=C([O-])C(F)(F)F [NR+ monododecanoate, nicotinamide riboside 5′-monododecanoate]",converted to free nicotinamide riboside to a significant degree
3,"CCCCCC(=O)OC[C@H]1O[C@@H]([n+]2cccc(C(N)=O)c2)[C@H](O)[C@@H]1O [NR+ monohexanoate, 3-carbamoyl-1-((2R,3R,4S,5R)-5-((hexanoyloxy)methyl)-3,4-dihydroxytetrahydrofuran-2-yl)pyridin-1-ium 2,2,2-trifluoroacetate]",converted to free nicotinamide riboside to a significant degree
4,"CCCCCCCCC(=O)OC[C@H]1O[C@@H]([n+]2cccc(C(N)=O)c2)[C@H](O)[C@@H]1O [NR+ monononanoate, 3-carbamoyl-1-((2R,3R,4S,5R)-3,4-dihydroxy-5-((nonanoyloxy)methyl)tetrahydrofuran-2-yl)pyridin-1-ium 2,2,2-trifluoroacetate]",converted to free nicotinamide riboside to a significant degree
5,"CCCCCCCC/C=C\CCCCCCCC(=O)OC[C@H]1O[C@@H]([n+]2cccc(C(N)=O)c2)[C@H](O)[C@@H]1O [NR+ monooleate, 3-carbamoyl-1-((2R,3R,4S,5R)-3,4-dihydroxy-5-((oleoyloxy)methyl)tetrahydrofuran-2-yl)pyridin-1-ium 2,2,2-trifluoroacetate]",converted to free nicotinamide riboside to a significant degree
6,"CCCCC(=O)OC[C@H]1O[C@@H]([n+]2cccc(C(N)=O)c2)[C@H](O)[C@@H]1O [NR+ monopentanoate, 3-carbamoyl-1-((2R,3R,4S,5R)-3,4-dihydroxy-5-((pentanoyloxy)methyl)tetrahydrofuran-2-yl)pyridin-1-ium 2,2,2-trifluoroacetate]",converted to free nicotinamide riboside to a significant degree
7,"CCCCCCCCCCC(=O)OC[C@H]1O[C@@H]([n+]2cccc(C(N)=O)c2)[C@H](O)[C@@H]1O [NR+ monoundecanoate, nicotinamide riboside 5′-monoundecanoate]",converted to free nicotinamide riboside to a significant degree
8,CCCCCC(=O)OCC1O[C@@H]([n+]2cccc(C(N)=O)c2)[C@H](OC(=O)CCCCC)[C@@H]1OC(=O)CCCCC (stereo partly shown) [NR+ trihexanoate TFA-],converted to free nicotinamide riboside to a significant degree
9,"CCCCCCCCCC(=O)OC[C@H]1O[C@@H](N2C=CCC(C(N)=O)=C2)[C@H](O)[C@@H]1O [NRH monodecanoate, nicotinamide riboside hydride 5′-monodecanoate]",converted to free nicotinamide riboside to a significant degree
10,"CCCCCCCCCCCCCC(=O)OC[C@H]1O[C@@H](N2C=CCC(C(N)=O)=C2)[C@H](O)[C@@H]1O [NRH monotetradecanoate, ((2R,3S,4R,5R)-5-(3-carbamoylpyridin-1 (4H)-yl)-3,4-dihydroxytetrahydrofuran-2-yl)methyl tetradecanoate]",converted to free nicotinamide riboside to a significant degree
11,"CCOC(=O)OC[C@H]1O[C@@H](N2C=CCC(C(N)=O)=C2)[C@H](OC(=O)OCC)[C@@H]1OC(=O)OCC [NRH triethylcarbonate, ((2R,3R,4R,5R)-5-(3-carbamoylpyridin-1(4H)-yl)-3,4-bis((ethoxycarbonyl)oxy)-tetrahydrofuran-2-yl)methyl ethylcarbonate]",converted to free nicotinamide riboside to a significant degree
12,"NC(=O)c1ccc[n+]([C@@H]2O[C@H](COP(=O)([O-])O)[C@@H](O)[C@H]2O)c1 [Nic mononucleotide, nicotinamide mononucleotide, reference compound]",some amount of conversion to free nicotinamide riboside

# Test system: not listed separately
# Assay: Gravimetric Vapor Sorption (GVS)
# Assay type: physicochemical
# Settings: 90% RH, 25° C.
# Procedure: Gravimetric Vapor Sorption (GVS): Samples were analyzed using a VTI corporation (now part of TA Instruments) SGA-100 with Cahn microbalance equipped with quartz sample and reference pans. Samples were dried in the SGA-100 under dry nitrogen for 5 hours at 25° C. followed by a moisture absorption step ramp from 5% relative humidity (RH) to 95% or 90% RH followed by a desorption step ramp back to 5% or 10% RH (all steps at 25° C.). The samples were held at each % RH step for 4 hours.
row,SMILES,GVS weight gain from the dried state
1,"CCCCCC(=O)OC[C@H]1O[C@@H](N2C=CCC(C(N)=O)=C2)[C@H](O)[C@@H]1O [mono C6-NRH derivative, nicotinamide riboside hydride 5′-monohexanoate]",approximately 5%
